Reference: patent publication US8293895B2, “Carbapenem derivatives” (KBP Biosciences Co., Ltd., priority 2007, dated 2012)
Values after ≈ are worked out from the molar mass of the structure shown.

How the values were obtained:
proteus mirabilis = test: In vitro antimicrobial activity, agar dilution method; type: cell-based; conditions: proteus mirabilis clinical isolates
[1] = In vivo pharmacokinetics of SD rat
Method: Drugs to be Tested and Preparation Thereof
Drugs to be tested: partial compounds of the present invention, self-synthesized as described above.
Control drugs: Ertapenem (Ertapenem for Injection), commercially available.
Internal standard substance: Warfarin, white powder, purity: 99%, batchnumber: 0072-8501, provided by Shanghai Institute for Drug Control.
Drug formulation: being dissolved in physiological saline to make the final concentration to be 5 mg/mL for intravenous injection and formulated before administration.
Test animal: SD male rats, weight: 200˜250 g, purchased from SHANGHAI SLAC LABORATORY ANIMAL CO. LTD.
Administration of the drugs to be tested: The SD male rats were randomly divided into five groups, 3 in each group, administrated by intravenous injection in an amount of 10 mg/kg; and weighted before administration.
Collection of Samples: Zero time was marked before administration; 0.5 mL of blood was respectively sampled from orbit venous plexus at 5 min, 15 min, 30 min, 45 min, 1 h, 2 h, 4 h, 6 h, 8 h, 24 h after administration into heparinized centrifuge tubes. The samples were centrifuged for 6 minutes at 8000 rpm and the supernatant plasma was separated. The plasma was freezed at −20° C. for LC-MS/MS analysis. Establishing liquid chromatography-mass spectrometry (LC-MS) methodology: Chromatographic conditions: chromatographic column. Gemini C6-Phenyl (50 mm×4.6 mm, 5 μm), mobile phase: 0.1% of formic acid-water-acetonitrile (5:35:60, v/v/v); flow rate: 1 mL/min; column temperature: 35-40° C., injection volume: 5 μL; split ratio: 1/5. Mass spectrometer conditions: scanning pattern: cation multiple reactions monitoring (MRM); ion source: electrospray ionization (ESI); Nebulize gas: 8 L/min; Curtain gas: 8 L/min; Collision gas: 4 L/min; Ionspray voltage: 4500 v; Temperature: 400° C./500° C. Preparation of the Standard Curve and Quality-Control Sample: a Suitable Amount of the drug to be tested was weighted precisely and then formulated into a stock solution (2.6 mg/mL) with ultrapure water. The stock solution was diluted with methanol to obtain a series of working solutions in a concentration of 25000, 5000, 2500, 500, 250 and 50 ng/mL respectively. 100 μL of plasma samples were respectively added into 20 μL of said working solutions to obtain the calibrated solutions in a concentration of […]. By the same method, the quality-controlled sample solutions in a concentration of 4000, 800 and 20 ng/mL can be prepared. A standard curve was obtained by chromatographic analysis of the sample. Methods for handling of sample: 20 μL of acetonitrile and 200 μL (200 ng/mL) Warfarin in acetonitrile were added into 100 μL of plasma sample, then spun for 1 minute and centrifuged for 5 minutes at 15000 rpm. 100 μL of the supernatant was taken, where 3 μL was used for the LC/MS/MS analysis. Results and Discussions: Concentration to be administered: The formulated drugs were determined using HPLC, and compared with the standard to obtain that the accuracy of the concentration of the drug solution administered by intravenous injection was 103.2%. Data analysis: The drug concentration in plasma would be considered as zero if under detectable limit (10 ng/mL). The pharmacokinetics parameters were calculated by the non-compartment model using Winnonlin Professional 5.2 pharmacokinetics software. Pharmacokinetics: The pharmacokinetics parameters and drug-time curve were obtained by measuring the plasma drug concentration at different time points. The half lives (t1/2) of the tested compounds were summarized in Table 3, wherein the half lives of the compounds of the present invention in rats (intravenous injection) were longer than those of Meropenem and Ertapenem.

pseudomonas aeruginosa = test: In vitro antimicrobial activity, agar dilution method; type: cell-based; conditions: pseudomonas aeruginosa clinical isolates
Excerpt: (§1) Bacterial strains for test: All the bacterial strains are obtained from clinic/hospital and purchased from public organizations. (1) Gram-positive bacteria: methicillin-sensitive Staphylococcus aureus (MSSA), methicillin-resistant Staphylococcus aureus (MRSA), methicillin-resistant Staphylococcus epidermidis (MRSE), methicillin-sensitive Staphylococcus epidermidis (MSSE), penicillin-sensitive Streptococcus pneumoniae (PSSP), penicillin-resistant Streptococcus pneumoniae (PRSP); (2) Gram-negative bacteria: Escherichia coli (products from ESBLs), Klebsiella pneumonia, Pseudomonas aeruginosa. Drugs to be tested: Compound A-E, self-made as described above; Control drugs: Meropenem (Meropenem for injection), Ertapenem (Ertapenem for injection), commercially available. Experimental Method: the agar dilution method, by reference to Methodology of Pharmacological Experiment (XU Shuyun et al, published by the Peoples Medical Publishing House, 1st Edition, August, 1982; 3rd Edition, 5th printing, January 2002, p 1659-1660).

[2] = system: penicillin-sensitive Streptococcus pneumoniae (PSSP); test: as above; type: cell-based; conditions: PSSP clinical isolates
Excerpt: as §1

[3] = system: penicillin-resistant Streptococcus pneumoniae (PRSP); test: as above; type: cell-based; conditions: PRSP clinical isolates
Excerpt: as §1

[4] = system: methicillin-resistant Staphylococcus aureus (MRSA); test: as above; type: cell-based; conditions: MRSA clinical isolates
Excerpt: as §1

[5] = system: methicillin-sensitive Staphylococcus epidermidis (MSSE); test: as above; type: cell-based; conditions: MSSE clinical isolates
Excerpt: as §1

[6] = system: methicillin-resistant Staphylococcus epidermidis (MRSE); test: as above; type: cell-based; conditions: MRSE clinical isolates
Excerpt: as §1

klebsiella pneumonia = test: as above; type: cell-based; conditions: Klebsiella pneumoniae, klebsiella pneumonia clinical isolates
Excerpt: as §1

[7] = system: methicillin-sensitive Staphylococcus aureus (MSSA); test: as above; type: cell-based; conditions: MSSA clinical isolates
Excerpt: as §1

serratia marcescens = test: as above; type: cell-based; conditions: serratia marcescens clinical isolates
[8] = SD male rats, intravenous injection 10 mg/kg, plasma, X ± SD

SMILES | MIC90 (proteus mirabilis) | Half lives t1/2 [1, 8] | MIC90 (pseudomonas aeruginosa) | MIC90 [2] | MIC90 [3] | MIC90 [4] | MIC90 [5] | MIC90 [6] | MIC90 (klebsiella pneumonia) | MIC90 [7] | MIC90 (serratia marcescens) | Half lives t1/2 ([1]; rat, in vivo, iv, 10 mg/kg)
C[C@@H](O)[C@H]1C(=O)N2C(C(=O)O)=C(S[C@@H]3CN[C@H](C(=O)NCc4ccco4)C3)[C@H](C)[C@H]12 [Compound A, (4R,5S,6S)-3-[(2S,4S)-2-formyl[[furan-2-ylmethyl]amino]pyrrolidine-4-yl]thio-6-[(1R)-1-hydroxyethyl]-4-methyl-7-oxo-1-aza-bicyclo[3.2.0] hept-2-ene-2-carboxylic acid] | 0.063 µg/mL (≈ 0.145 µM) | 21 ± 2.4 min | 64 µg/mL (≈ 147 µM) | 0.008 µg/mL (≈ 0.0184 µM) | 0.5 µg/mL (≈ 1.15 µM) | 32 µg/mL (≈ 73.5 µM) | 0.125 µg/mL (≈ 0.287 µM) | 1 µg/mL (≈ 2.3 µM) | 0.125 µg/mL (≈ 0.287 µM) | 0.125 µg/mL (≈ 0.287 µM) | 0.063 µg/mL (≈ 0.145 µM) | –
C[C@@H](O)[C@H]1C(=O)N2C(C(=O)O)=C(S[C@@H]3CN[C@H](C(=O)NCc4ccc(C(=O)O)o4)C3)[C@H](C)[C@H]12 [Compound B, (4R,5S,6S)-3-[(2S,4S)-2-formyl[[furan-2-carboxy-5-ylmethyl]amino]-pyrrolidine-4-yl]thio-6-[(1R)-1-hydroxyethyl]-4-methyl-7-oxo-1-aza-bicyclo[3.2.0]hept-2-ene-2-carboxylic acid] | 0.063 µg/mL (≈ 0.131 µM) | 43.2 ± 1.8 min | 32 µg/mL (≈ 66.7 µM) | 0.008 µg/mL (≈ 0.0167 µM) | 1 µg/mL (≈ 2.09 µM) | 64 µg/mL (≈ 133 µM) | 0.25 µg/mL (≈ 0.521 µM) | 2 µg/mL (≈ 4.17 µM) | 0.5 µg/mL (≈ 1.04 µM) | 0.25 µg/mL (≈ 0.521 µM) | 0.063 µg/mL (≈ 0.131 µM) | –
C[C@@H](O)[C@H]1C(=O)N2C(C(=O)O)=C(S[C@@H]3CN[C@H](C(=O)NCc4ccc(CC(=O)O)o4)C3)[C@H](C)[C@H]12 [Compound C, (4R,5S,6S)-3-[(2S,4S)-2-formyl[[furan-2-carboxymethyl-5-ylmethyl]amino]pyrrolidine-4-yl]thio-6-[(1R)-1-hydroxyethyl]-4-methyl-7-oxo-1-aza-bicyclo[3.2.0]hept-2-ene-2-carboxylic acid] | 0.063 µg/mL (≈ 0.128 µM) | 46.8 ± 1.8 min | 32 µg/mL (≈ 64.8 µM) | 0.016 µg/mL (≈ 0.0324 µM) | 0.5 µg/mL (≈ 1.01 µM) | 64 µg/mL (≈ 130 µM) | 0.25 µg/mL (≈ 0.507 µM) | 1 µg/mL (≈ 2.03 µM) | 0.5 µg/mL (≈ 1.01 µM) | 0.25 µg/mL (≈ 0.507 µM) | 0.063 µg/mL (≈ 0.128 µM) | –
C[C@@H](O)[C@H]1C(=O)N2C(C(=O)O)=C(S[C@@H]3CN[C@H](C(=O)NCc4cc(C(=O)O)co4)C3)[C@H](C)[C@H]12 [Compound D, (4R,5S,6S)-3-[(2S,4S)-2-formyl[[furan-3-carboxy-5-ylmethyl]amino]-pyrrolidine-4-yl]-thio-6-[(1R)-1-hydroxyethyl]-4-methyl-7-oxo-1-aza-bicyclo[3.2.0]hept-2-ene-2-carboxylic acid] | 0.063 µg/mL (≈ 0.131 µM) | 19.8 ± 1.2 min | 64 µg/mL (≈ 133 µM) | 0.008 µg/mL (≈ 0.0167 µM) | 1 µg/mL (≈ 2.09 µM) | 32 µg/mL (≈ 66.7 µM) | 0.125 µg/mL (≈ 0.261 µM) | 2 µg/mL (≈ 4.17 µM) | 0.125 µg/mL (≈ 0.261 µM) | 0.25 µg/mL (≈ 0.521 µM) | 0.063 µg/mL (≈ 0.131 µM) | –
C[C@@H](O)[C@H]1C(=O)N2C(C(=O)O)=C(S[C@@H]3CN[C@H](C(=O)NCc4ccc(S(N)(=O)=O)o4)C3)[C@H](C)[C@H]12 [Compound E, (4R,5S,6S)-3-[(2S,4S)-2-formyl[[furan-2-sulphonylamino-5-ylmethyl]amino]-pyrrolidine-4-yl]thio-6-[(1R)-1-hydroxyethyl]-4-methyl-7-oxo-1-aza-bicyclo[3.2.0]hept-2-ene-2-carboxylic acid] | 0.063 µg/mL (≈ 0.122 µM) | 41.4 ± 2.4 min | 32 µg/mL (≈ 62.2 µM) | 0.008 µg/mL (≈ 0.0155 µM) | 2 µg/mL (≈ 3.89 µM) | 64 µg/mL (≈ 124 µM) | 0.125 µg/mL (≈ 0.243 µM) | 2 µg/mL (≈ 3.89 µM) | 0.5 µg/mL (≈ 0.972 µM) | 0.25 µg/mL (≈ 0.486 µM) | 0.063 µg/mL (≈ 0.122 µM) | –
C[C@@H](O)[C@H]1C(=O)N2C(C(=O)O)=C(S[C@@H]3CN[C@H](C(=O)Nc4cccc(C(=O)O)c4)C3)[C@H](C)[C@H]12 [Ertapenem, reference compound] | 0.063 µg/mL (≈ 0.132 µM) | – | > 64 µg/mL | 0.016 µg/mL (≈ 0.0336 µM) | 2 µg/mL (≈ 4.21 µM) | > 64 µg/mL | 0.25 µg/mL (≈ 0.526 µM) | 2 µg/mL (≈ 4.21 µM) | 1 µg/mL (≈ 2.1 µM) | 0.5 µg/mL (≈ 1.05 µM) | 0.125 µg/mL (≈ 0.263 µM) | 36 ± 1.8 min
C[C@@H](O)[C@H]1C(=O)N2C(C(=O)O)=C(S[C@@H]3CN[C@H](C(=O)N(C)C)C3)[C@H](C)[C@H]12 [Meropenem, reference compound] | 0.063 µg/mL (≈ 0.164 µM) | 6.6 ± 1.2 min | 32 µg/mL (≈ 83.4 µM) | 0.008 µg/mL (≈ 0.0209 µM) | 1 µg/mL (≈ 2.61 µM) | 64 µg/mL (≈ 167 µM) | 0.125 µg/mL (≈ 0.326 µM) | 2 µg/mL (≈ 5.22 µM) | 0.5 µg/mL (≈ 1.3 µM) | 0.25 µg/mL (≈ 0.652 µM) | 0.063 µg/mL (≈ 0.164 µM) | –
